Series [1] deals with S. aureus O11. The experiment in a line: Emergence of in vitro-selected single-step ciprofloxacin resistance. Conditions: ciprofloxacin 1 μg per ml (two times the MIC); inhibitor 1 μg/ml; 24 h. Format: cell-based. Here is the method:
The frequency of mutant selection was determined to be 3×10−8 by comparing the number of colonies that grew on plates containing the anti-infective agent with the number of colonies obtained upon plating appropriate dilutions in the absence of anti-infective agents.

In series [2] the test system is S. aureus. The experiment in a line: MIC, microdilution broth, multiresistant clinical isolates (Table 1A). Format: cell-based. Conditions: Staphylococcus aureus; ten multiresistant clinical isolates; read-out: Median MIC S. aureus. The procedure:
(§1) Cell growth was tested using the Minimal Inhibitory Concentration (MIC) susceptibility tests by use of the microdilution broth method in accordance to the NCCLS Guidelines (NCCLS Guidelines, Methods for Dilution Antimicrobial Susceptibility Tests for Bacteria That Grow Aerobically; Approved Standard, Sixth Edition, Volume 23; Number 2). The minimum inhibitory concentration (MIC), is defined as the lowest concentration of drug which inhibits growth of the test organism, in the sense that no visible growth is detected (total inhibition of growth). In example 2, MIC of the compounds used on fungal microorgansims was determined from the IC90 measurements according to NCCLS Guidelines.
(§2) A log phase culture of bacteria was diluted with fresh pre-warmed Mueller-Hinton medium and adjusted to a defined OD at 600 nm in order to give a final concentration of 1×10^4-5 bacteria/ml medium. The bacterial culture was transferred to microtiter-plates and culture was added to each well. […] Trays were incubated at 37° C. by shaking in a robot analyzer, PowerWavex, software KC^4′ Kebo. Lab, Copenhagen, for 16 h and optical densities were measured at 600 nm during the incubation time in order to record growth curves. Wells containing bacterial culture without drug were used as controls to ensure correct inoculum size and bacterial growth during the incubation. Cultures were tested in order to detect contaminations. Each experiment was repeated in triplicate.
(§3) Ten strains in each test group.
A general note: Dilution methods test growth across graded concentrations, often in twofold steps.

The subject of series [3] is S. epidermidis. The series is described as above. Format: cell-based. Conditions: Staphylococcus epidermidis; ten multiresistant clinical isolates; read-out: Median MIC S. epidermidis. The procedure:
as §1, §2, §3

The subject of series [4] is E. coli. The description is as above. The following applies: Escherichia coli; ten multiresistant clinical isolates; read-out: Median MIC E. coli. It is filed as cell-based. Here is the method:
as §1, §2, §3

Series [5] concerns Candida species. The experiment in a line: MIC on clinical isolates of Candida species, broth microdilution NCCLS M27-A (Table 3). Format: cell-based. The following applies: Candida species incl. fluconazole resistant; MIC = 90% growth inhibition. Here is the method: The antibacterial effect of demethylated/dealkylated phenothiazine or thioxanthene compounds were studied by growth inhibition studies exposing cells to 0-32 μg/ml of drug. Each experiment was repeated in triplicate. MIC values represent the mean values of two separate triplicate experiments.
4 clinical isolates of Candida species (including 3 fluconazole resistant isolates) were subcultured for 24 h on Sabouraud glucose agar before susceptibility testing. Broth microdilution tests were performed according to NCCLS document M27-A (Ref: National Commitee for Clinical Laboratory Standards. (1997). Reference Method for Broth Dilution Antifungal Susceptibility Testing of Yeasts: Approved Standard M27-A. NCCLS, Wayne, Pa.). Microtitre plates were read spectrophotometrically at 530 nm, after mixing the wells by pipetting to resuspend yeast sediments. In this experiment, the MIC was defined as the lowest drug dilution resulting in 90% growth inhibition.

Series [6] relates to E. faecalis MDR/VRE clinical isolates. The experiment in a line: FIC index, synergy with antibiotics (Table 4a). Format: cell-based, Enterococcus faecalis. Conditions: 8 MDR/VRE E. faecalis, mean, compound at ¼ of MIC. The procedure: (§4) The effect of the compounds was tested according to the methods described in WO2005/105145. In brief, cell growth was tested using the MIC susceptibility tests by use of the microdilution broth method in accordance to the NCCLS Guidelines (NCCLS Guidelines, Methods for Dilution Antimicrobial Susceptibility Tests for Bacteria That Grow Aerobically; Approved Standard, Sixth Edition, Volume 23; Number 2).
(§5) The Fractional Inhibitory Concentration (FIC) index were calculated for each compound as described in WO2005/105145. Synergy was defined for Fractional Inhibitory Concentration (FIC) indices less than 0.5
Enterococcus faecalis: 8 multidrug resistant in vivo-selected clinical isolates. […] Expressing change in the cell wall precursor target as a major resistance mechanism (VanA gene expression).

The subject of series [7] is Multiresistant clinical isolates E. coli. The experiment in a line: Maximal reversal of resistance and synergistic effect (Table 4c). The following applies: E. coli multiresistant isolates. Format: cell-based. The procedure: The maximal obtained reversal of resistance and synergistic effect was tested as previously described.
Strains: Multiresistant clinical isolates E. coli, Ten strains in each group.

For series [8], the system named is Enterococci sp. Description: MIC on multiresistant and susceptible clinical isolates of Enterococci (Table 2). It is filed as cell-based, Enterococcus faecalis and Enterococcus faecium. The following applies: 8 multiresistant (VanA, VanB, HLAR, BLR,CR) and 8 susceptible isolates. Here is the method:
as §1
A log phase culture of bacteria was diluted with fresh pre-warmed Mueller-Hinton medium and adjusted to a defined OD at 600 nm in order to give a final concentration of 1×10^4-5 bacteria/ml medium. The bacterial culture was transferred to microtiter-plates and culture was added to each well. Drug was added to the bacterial culture in the wells as two-fold dilution series of drug in order to give final concentrations ranging from 0.03 to 128 μg/ml. Trays were incubated at 37° C. by shaking in a robot analyzer, PowerWavex, software KC^4′ Kebo. Lab, Copenhagen, for 16 h and optical densities were measured at 600 nm during the incubation time in order to record growth curves. […]

For series [9], the system named is MT4 cells. The experiment in a line: Cytotoxic effect in uninfected MT4 cultures. Format: cell-based. Conditions: at the concentrations used. Here is the method: (§6) Compounds were examined for possible antiviral activity against strain IIIB of HIV-1 using MT4 cells as target cells. MT4 cells were incubated with virus (0.005 MOI) and growth medium containing the test dilutions of compound(s) for six days in parallel with virus-infected and uninfected control cultures without compound added. Expression of HIV in the cultures was indirectly quantified using the MTT assay as previously described. Compounds mediating less than 30% reduction of HIV expression were considered without biological activity. Compounds were tested in parallel for cytotoxic effect in uninfected MT4 cultures containing the test dilutions of compound as described above. Cultures for test of both antiviral activity and cytotoxic effect were set up in tripleduplicates, […] per culture in micro titre plates. A 30% inhibition of cell growth relative to control cultures was considered significant. The 50% inhibitory concentration was determined by interpolation from the plots of percent inhibition versus concentration of compound.
(§7) CC50 is defined as the inhibitory concentration that reduces cellular growth or viability of uninfected cells by 50%.

The nature of series [10]: Cytotoxic effect in uninfected MT4 cultures. Format: cell-based. Conditions: human, uninfected MT4 cells; single agent; uninfected MT4. The procedure:
as §6, §7

Series [11] deals with S. aureus MRSA clinical isolates. The experiment in a line: FIC index, synergy with antibiotics (Table 4a). Conditions: with Dicloxacillin; 8 MRSA; mean; compound at ¼ of MIC. It is filed as cell-based, Staphylococcus aureus. Here is the method: as §4, §5
Staphylococcus aureus: 8 (MRSA) in vivo-selected clinical isolates. Resistant to methicillin and beta-lactam antibiotics. Susceptible to teicoplanin chloramphenicol, fosfomycin, netilmicin and vancomycin.

The record followed here is patent US8604059B2, “Thioxanthene derivatives for the treatment of infectious diseases” (BKG Pharma APS, priority 2009, dated 2013).

Each structure is given as a SMILES string. ≈ marks a conversion by molar mass, not a printed value. Some results are limits rather than exact numbers.

What is called MIC is the smallest concentration in the dilution series that meets the test's criterion for growth inhibition. Broadly, the CC50 is the concentration giving 50% cytotoxicity. Higher therefore signals lower toxicity to the cells. In the case of `Clc1ccc2c(c1)/C(=C/CCC1CCNCC1)c1ccccc1S2` [Compound 3], in [1], the “Frequency of emergence of resistance” value is listed as <1 × 10^−10. Also, the MIC worked out at 2 µg/mL (≈ 5.62 µM) in series [2], 1 µg/mL (≈ 2.81 µM) in series [3] and 3 µg/mL (≈ 8.43 µM) in [4]. Also, the “MIC Mean (range)” value is on record as 1.0 (0.25-2.0) μ/ml in [5] and 0.125 (0.06-0.125) μ/ml in series [8]. Also, the FIC index in [6] (with Ciprofloxacin), in [6] (with Dicloxacillin) and in series [11] was 0.25 in each case. The “Maximal reversal of resistance: concentration of compound” value in [7] came out at 0.6 µg/mL. Besides, in series [9], the “Cytotoxic effect alone” value is reported as “no antiviral or cytotoxic effect”. This compound yielded a CC50 at 6 days in [10] of more than 4 µM.
